Key:
Type in all cases: in vivo
[1] = tested on: Corn Planthopper (Peregrinus maidis (Ashmead)); test: Test C: control of Corn Planthopper, spray on corn plant; conditions: 144 h, nymphs, assessed after 6 days; for mortality at 250 ppm: sprayed at 250 ppm
Description: (§1) Test compounds were formulated using a solution containing 10% acetone, 90% water and 300 ppm Activator 90® non-ionic surfactant (Loveland Products, Loveland, Colorado, USA). The formulated compounds were applied in 1 mL of liquid through an atomized nozzle positioned 1.27 cm (0.5 inches) above the top of each test unit. Test compounds were sprayed at the rates indicated, and each test was replicated three times.
For evaluating control of Corn Planthopper (Peregrinus maidis (Ashmead)) through contact and/or systemic means, the test unit consisted of a small open container with a 3- to 4-day-old corn (maize) plant inside. White sand was added to the top of the soil prior to application of the test compound.
Test compounds were formulated and sprayed at 250 and 50 ppm with three replications as described above. After spraying of the formulated test compound, the test units were allowed to dry for 1 h before they were post-infested with ˜15-20 nymphs (18-to-21-day-old). A black, screened cap was placed on the top of each test unit, and the test units were held for 6 days in a growth chamber at 22 to 24° C. and 50-70% relative humidity. Each test unit was then visually assessed for insect mortality.

[2] = tested on: Green Peach Aphid (Myzus persicae (Sulzer)); test: Test D: control of Green Peach Aphid, spray on radish plant; conditions: 144 h, sprayed at 250 ppm, assessed after 6 days
Description: as §1
For evaluating control of Green Peach Aphid (Myzus persicae (Sulzer)) through contact and/or systemic means, the test unit consisted of a small open container with a 12- to 15-day-old radish plant inside. Prior to compound application, each test unit was pre-infested by placing on a leaf of the test plant 30-40 aphids on a piece of leaf excised from a culture plant (cut-leaf method). The aphids moved onto the test plant as the leaf piece desiccated. After pre-infestation, the soil of the test unit was covered with a layer of sand.
Test compounds were formulated and sprayed at 250 and 50 ppm with three replications as described above. After spraying of the formulated test compound, each test unit was allowed to dry for 1 hour and then a black, screened cap was placed on top. The test units were held for 6 days in a growth chamber at 19-21° C. and 50-70% relative humidity. Each test unit was then visually assessed for insect mortality.

[3] = tested on: cotton melon aphid (Aphis gossypii (Glover)); test: Test E: control of cotton melon aphid, spray on okra plant; conditions: 144 h, assessed after 6 days; for mortality at 50 ppm: sprayed at 50 ppm; for mortality at 50 ppm / mortality at 250 ppm: read-out: mortality; for mortality at 250 ppm: sprayed at 250 ppm
Description: as §1
For evaluating control of cotton melon aphid (Aphis gossypii (Glover)) through contact and/or systemic means, the test unit consisted of a small open container with a 5-day-old okra plant inside. This was pre-infested with 30-40 insects on a piece of leaf according to the cut-leaf method, and the soil of the test unit was covered with a layer of sand.
Test compounds were formulated and sprayed at 250, 50, 10, and 2 ppm with three replications as described above. After spraying, the test units were maintained in a growth chamber for 6 days at 19° C. and 70% relative humidity. Each test unit was then visually assessed for insect mortality.

CCN(C(=O)c1cc(Cl)cc(OS(=O)(=O)C(F)(F)F)c1)C(C)c1ncnn1-c1ncccn1 (centres unmarked) [Compound 50, 3-chloro-5-[[ethyl[1-[1-(2-pyrimidinyl)-1H-1,2,4-triazol-5-yl]ethyl]amino]carbonyl]phenyl 1,1,1-trifluoromethanesulfonate]
≥ 80%: mortality at 250 ppm [1] | mortality at 250 ppm [2] | mortality at 50 ppm [3] | mortality at 250 ppm [3]

CC(c1ncnn1-c1ncccn1)N(C)C(=O)c1cc(Cl)cc(OS(=O)(=O)C(F)(F)F)c1 (centres unmarked) [Compound 72]
≥ 80%: mortality at 50 ppm ([1]; sprayed at 50 ppm) | mortality at 250 ppm [1] | mortality at 250 ppm [2] | mortality at 2 ppm ([3]; sprayed at 2 ppm) | mortality at 10 ppm ([3]; sprayed at 10 ppm) | mortality at 50 ppm [3] | mortality at 250 ppm [3]
